From patent US4504580A, “Antibiotics produced by fermentation of a novel strain of Streptomyces hygroscopicus” (Bristol-Myers Company, priority 1983, dated 1985)
≈ marks a conversion by molar mass, not a printed value. Read-outs that look alike come from different tables or passages of the source.

What was measured:
[1] = tested on: Staphylococcus aureus 209P; experiment: MIC by serial two-fold agar dilution, S. aureus 209P; format: cell-based; settings: Mueller-Hinton agar
Protocol: (§1) The minimum inhibitory concentrations (MIC) of Bu-2659A, B, C, D and E were determined for a variety of gram-positive and gram-negative bacteria by the serial two-fold agar dilution method using the Steer's multi-inoculating apparatus. The inoculum was standardized as a 10^4 dilution of an overnight culture of the test organisms in Heart Infusion Broth (Difco). […] Reference antibiotics utilized in these tests included commercially available neomycin as well as its components, neomycins B and C [as used herein, the term "neomycin" means the commercial product containing neomycins B and C at an approximate ratio of 7:3], paromomycin [the commercial product containing >90% of paromomycin I and <10% of paromomycin II] and ribostamycin.

[2] = tested on: Staphylococcus aureus Smith; experiment: MIC by serial two-fold agar dilution, S. aureus Smith; format: cell-based; settings: Mueller-Hinton agar
Protocol: as §1

[3] = tested on: Staphylococcus aureus D136; experiment: MIC by serial two-fold agar dilution, S. aureus D136; format: cell-based; settings: Table 7; Mueller-Hinton agar
Protocol: as §1

[4] = tested on: Micrococcus luteus PCI 1001; experiment: MIC by serial two-fold agar dilution, M. luteus PCI 1001; format: cell-based; settings: Table 7; Mueller-Hinton agar
Protocol: as §1

[5] = tested on: Micrococcus flavus D12; experiment: MIC by serial two-fold agar dilution, M. flavus D12; format: cell-based; settings: Table 7; Mueller-Hinton agar
Protocol: as §1

[6] = tested on: Bacillus subtilis PCI 219; experiment: MIC by serial two-fold agar dilution, B. subtilis PCI 219; format: cell-based; settings: Mueller-Hinton agar
Protocol: as §1

[7] = tested on: Escherichia coli NIHJ; experiment: MIC by serial two-fold agar dilution, E. coli NIHJ; format: cell-based; settings: Mueller-Hinton agar
Protocol: as §1

[8] = tested on: Escherichia coli Juhl; experiment: MIC by serial two-fold agar dilution, E. coli Juhl; format: cell-based; settings: Table 7; Mueller-Hinton agar
Protocol: as §1

[9] = tested on: Klebsiella pneumoniae D11; experiment: MIC by serial two-fold agar dilution, K. pneumoniae D11; format: cell-based; settings: Mueller-Hinton agar
Protocol: as §1

[10] = tested on: Proteus vulgaris A9436; experiment: MIC by serial two-fold agar dilution, P. vulgaris A9436; format: cell-based; settings: Mueller-Hinton agar
Protocol: as §1

[11] = tested on: Proteus mirabilis A9554; experiment: MIC by serial two-fold agar dilution, P. mirabilis A9554; format: cell-based; settings: Mueller-Hinton agar
Protocol: as §1

[12] = tested on: Proteus mirabilis A9906; experiment: MIC by serial two-fold agar dilution, P. mirabilis A9906; format: cell-based; settings: Table 7; Mueller-Hinton agar
Protocol: as §1

[13] = tested on: Proteus morganii A9553; experiment: MIC by serial two-fold agar dilution, P. morganii A9553; format: cell-based; settings: Table 7; Mueller-Hinton agar
Protocol: as §1

[14] = tested on: Proteus rettgeri A15167; experiment: MIC by serial two-fold agar dilution, P. rettgeri A15167; format: cell-based; settings: Table 7; Mueller-Hinton agar
Protocol: as §1

[15] = tested on: Pseudomonas aeruginosa D15; experiment: MIC by serial two-fold agar dilution, P. aeruginosa D15; format: cell-based; settings: Table 7; Mueller-Hinton agar
Protocol: as §1

[16] = tested on: Pseudomonas aeruginosa A9930; experiment: MIC by serial two-fold agar dilution, P. aeruginosa A9930; format: cell-based; settings: Mueller-Hinton agar
Protocol: as §1

[17] = tested on: Serratia marcescens A20019; experiment: MIC by serial two-fold agar dilution, S. marcescens A20019; format: cell-based; settings: Table 7; Mueller-Hinton agar
Protocol: as §1

[18] = tested on: Streptococcus pyogenes A20201; experiment: MIC by serial two-fold agar dilution, S. pyogenes A20201; format: cell-based; settings: Table 8; GC medium
Protocol: as §1

[19] = tested on: Streptococcus pneumoniae Type I; experiment: MIC by serial two-fold agar dilution, S. pneumoniae Type I; format: cell-based; settings: Table 8; GC medium
Protocol: as §1

[20] = tested on: Neisseria gonorrhoeae A20143; experiment: MIC by serial two-fold agar dilution, N. gonorrhoeae A20143; format: cell-based; settings: Table 8; GC medium
Protocol: as §1

[21] = tested on: Neisseria meningitidis A21496; experiment: MIC by serial two-fold agar dilution, N. meningitidis A21496; format: cell-based; settings: Table 8; GC medium
Protocol: as §1

[22] = tested on: Haemophilus influenzae A9729; experiment: MIC by serial two-fold agar dilution, H. influenzae A9729; format: cell-based; settings: Table 8; GC medium
Protocol: as §1

[23] = tested on: Mycobacterium smegmatis 607; experiment: MIC by serial two-fold agar dilution, M. smegmatis 607; format: cell-based; settings: Table 8; No. 1001 medium
Protocol: as §1

[24] = tested on: Mycobacterium phlei; experiment: MIC by serial two-fold agar dilution, M. phlei; format: cell-based; settings: Table 8; No. 1001 medium
Protocol: as §1

[25] = tested on: Mycobacterium ranae; experiment: MIC by serial two-fold agar dilution, M. ranae; format: cell-based; settings: Table 8; No. 1001 medium
Protocol: as §1

[26] = tested on: Staphylococcus aureus A20239; experiment: MIC, aminoglycoside-resistant S. aureus A20239; format: cell-based; settings: Table 9; inactivating enzyme APH(3')-I,II; Mueller-Hinton agar
Protocol: as §1

[27] = tested on: Bacillus brevis IFO 12334; experiment: MIC, aminoglycoside-resistant B. brevis IFO 12334; format: cell-based; settings: Table 9; inactivating enzyme ANT (4'); Mueller-Hinton agar
Protocol: as §1

[28] = tested on: Escherichia coli ML 1630; experiment: MIC, aminoglycoside-resistant E. coli ML 1630; format: cell-based; settings: Table 9; inactivating enzyme APH(3')-I; Mueller-Hinton agar
Protocol: as §1

[29] = tested on: Escherichia coli A20107; experiment: MIC, aminoglycoside-resistant E. coli A20107; format: cell-based; settings: Table 9; inactivating enzyme APH(3')-II; Mueller-Hinton agar
Protocol: as §1

[30] = tested on: Escherichia coli JR66/W677; experiment: MIC, aminoglycoside-resistant E. coli JR66/W677; format: cell-based; settings: Table 9; inactivating enzymes APH(3')-II, ANT(2"); Mueller-Hinton agar
Protocol: as §1

[31] = tested on: Escherichia coli JR88; experiment: MIC, aminoglycoside-resistant E. coli JR88; format: cell-based
Protocol: as §1

[32] = tested on: Escherichia coli JR35/C600; experiment: MIC, aminoglycoside-resistant E. coli JR35/C600; format: cell-based; settings: Table 9; inactivating enzyme APH(3')-I; Mueller-Hinton agar
Protocol: as §1

[33] = tested on: Escherichia coli A20732; experiment: MIC, aminoglycoside-resistant E. coli A20732; format: cell-based; settings: Table 9; inactivating enzyme ANT(2"); Mueller-Hinton agar
Protocol: as §1

[34] = tested on: Escherichia coli NR79/W677; experiment: MIC, aminoglycoside-resistant E. coli NR79/W677; format: cell-based; settings: Table 9; inactivating enzyme AAC(6')-I; Mueller-Hinton agar
Protocol: as §1

[35] = tested on: Enterobacter cloacae A20364; experiment: MIC, aminoglycoside-resistant E. cloacae A20364; format: cell-based; settings: Table 9; inactivating enzyme APH(3')-I; Mueller-Hinton agar
Protocol: as §1

[36] = tested on: Pseudomonas aeruginosa A20601; experiment: MIC, aminoglycoside-resistant P. aeruginosa A20601; format: cell-based; settings: Table 9; inactivating enzymes AAC(3)-I, APH(3')-II; Mueller-Hinton agar
Protocol: as §1

[37] = tested on: Pseudomonas aeruginosa A20896; experiment: MIC, aminoglycoside-resistant P. aeruginosa A20896; format: cell-based; settings: Table 9; inactivating enzyme AAC(3)-II; Mueller-Hinton agar
Protocol: as §1

[38] = tested on: species of Streptococcus and Mycobacterium; experiment: Antibacterial activity (MIC), overall, Streptococcus and Mycobacterium, Table 8; format: cell-based
Protocol: as §1

[39] = tested on: Escherichia coli Juhl; experiment: Experimental systemic infection in mice, E. coli Juhl; format: in vivo; settings: im, single treatment, 4 days
Protocol: (§2) The in vivo activity of Bu-2659A was assessed by experimental systemic infection in mice. The pathogenic bacteria used in the in vivo tests were E. coli Juhl, K. pneumoniae D-11, P. mirabilis A9906, S. aureus Smith and S. pyogenes A20201. Mice were challenged intraperitoneally with approximately 100×LD50 dose of the pathogens in a 5% suspension of hog gastric mucin (American Laboratories, Omaha, Neb.). A single intramuscular treatment with the antibiotic was given immediately after the bacterial challenge. […] Neomycin was comparatively tested as a reference compound. […] In terms of PD50 value Bu-2659A was about one-half as active as neomycin against infections with S. aureus and S. pyogenes.

[40] = tested on: Klebsiella pneumoniae D-11; experiment: Experimental systemic infection in mice, K. pneumoniae D-11; format: in vivo; settings: im, single treatment, 4 days
Protocol: as §2

[41] = tested on: Proteus mirabilis A9906; experiment: Experimental systemic infection in mice, P. mirabilis A9906; format: in vivo; settings: im, single treatment, 4 days
Protocol: as §2

[42] = tested on: Staphylococcus aureus Smith; experiment: Experimental systemic infection in mice, S. aureus Smith; format: in vivo; settings: im, single treatment, 4 days
Protocol: as §2

[43] = tested on: Streptococcus pyogenes A20201; experiment: Experimental systemic infection in mice, S. pyogenes A20201; format: in vivo; settings: im, single treatment, 4 days
Protocol: as §2

[44] = Acute toxicity in mice; format: in vivo; settings: mice
Protocol: The acute toxicity of Bu-2659A was determined in mice by intravenous, intraperitoneal and subcutaneous routes. Neomycin also was tested for comparison purposes. […] The toxicity of Bu-2659A was approximately 1/3 that of neomycin in terms of LD50 values, thus presenting a potential clinical advantage for Bu-2659A.

[45] = tested on: bacteria of Table 10; experiment: In vitro activity of Bu-2659 DP-I vs neamine, overall, Table 10; format: cell-based
Protocol: as §1
The in vitro activity of Bu-2659 DP-I (1-deamino-1-hydroxyneamine) is shown in Table 10 along with that of neamine.

neomycin
MIC ([1]; Table 7): 0.4 µg/mL
MIC ([2]; Table 7): 0.8 µg/mL
MIC [3]: 0.8 µg/mL
MIC [4]: 0.8 µg/mL
MIC [5]: 3.1 µg/mL
MIC ([6]; Table 7): < 0.05 µg/mL
MIC ([7]; Table 7): 1.6 µg/mL
MIC [8]: 3.1 µg/mL
MIC ([9]; Table 7): 0.4 µg/mL
MIC ([10]; Table 7): 0.8 µg/mL
MIC ([11]; Table 7): 0.8 µg/mL
MIC [12]: 0.8 µg/mL
MIC [13]: 3.1 µg/mL
MIC [14]: 1.6 µg/mL
MIC [15]: 3.1 µg/mL
MIC ([16]; Table 7): 3.1 µg/mL
MIC [17]: 1.6 µg/mL
MIC [18]: 12.5 µg/mL
MIC [19]: 25 µg/mL
MIC [20]: > 400 µg/mL
MIC [21]: 400 µg/mL
MIC [22]: 400 µg/mL
MIC [23]: 0.4 µg/mL
MIC [24]: 0.2 µg/mL
MIC [25]: 0.4 µg/mL
MIC [26]: 25 µg/mL
MIC [27]: 25 µg/mL
MIC [28]: > 100 µg/mL
MIC [29]: 100 µg/mL
MIC [30]: > 100 µg/mL
MIC ([31]; Table 9, inactivating enzyme AAC(3)-I, Mueller-Hinton agar): 1.6 µg/mL
MIC [32]: > 100 µg/mL
MIC [33]: 0.8 µg/mL
MIC [34]: 50 µg/mL
MIC [35]: > 100 µg/mL
MIC [36]: 12.5 µg/mL
MIC [37]: > 100 µg/mL
activity against Streptococcus and Mycobacterium, in words [38]: equivalent activity
PD50 [39]: 3.1 mg/kg
PD50 [40]: 0.9 mg/kg
PD50 [41]: 1.8 mg/kg
PD50 [42]: 0.31 mg/kg
PD50 [43]: 50 mg/kg
LD50 ([44]; intraperitoneal): 180 mg/kg
LD50 ([44]; intravenous): 34 mg/kg
LD50 ([44]; subcutaneous): 280 mg/kg

NC[C@H]1O[C@H](O[C@H]2[C@H](O)[C@@H](O)[C@H](O)C[C@@H]2N)[C@H](N)[C@@H](O)[C@@H]1O [Bu-2659 DP-I, 1-deamino-1-hydroxyneamine]
MIC ([1]; Staphylococcus aureus, 209P, Table 10, read-out: MIC): 200 µg/mL (≈ 619 µM)
MIC ([2]; Staphylococcus aureus, Table 10, read-out: MIC): 200 µg/mL (≈ 619 µM)
MIC ([6]; Bacillus subtilis, PCI219, Table 10, read-out: MIC): 100 µg/mL (≈ 309 µM)
MIC ([7]; Escherichia coli, Table 10, read-out: MIC): 200 µg/mL (≈ 619 µM)
MIC ([9]; Klebsiella pneumoniae, D11, Table 10, read-out: MIC): 200 µg/mL (≈ 619 µM)
MIC ([10]; Proteus vulgaris, A9436, Table 10, read-out: MIC): 200 µg/mL (≈ 619 µM)
MIC ([11]; Proteus mirabilis, A9554, Table 10, read-out: MIC): 800 µg/mL (≈ 2470 µM)
MIC ([16]; Pseudomonas aeruginosa, A9930, Table 10, read-out: MIC): > 800 µg/mL
MIC ([31]; Escherichia coli, JR88): 200 µg/mL (≈ 619 µM)
in vitro activity compared with neamine, in words [45]: much less active than neamine
